Measured values from patent publication US8299036B2, “Active agent combinations with insecticidal and acaricidal properties” (priority 2003, dated 2012).

How the values were obtained:
Type in all cases: in vivo
Aphis gossypii = Aphis gossypii test (cotton leaves, dip); details: Table A
Experimental: To produce a suitable preparation of active compound, 1 part by weight of active compound is mixed with the stated amount of solvent and emulsifier, and the concentrate is diluted with emulsifier-containing water to the desired concentration.
Cotton leaves (Gossypium hirsutum) which are heavily infested by the cotton aphid (Aphis gossypii) are treated by being dipped into the preparation of active compound of the desired concentration.
(§1) After the desired period of time, the kill in % is determined. 100% means that all aphids have been killed; 0% means that none of the aphids have been killed. The kill rates determined are calculated using Colby's formula (see page 44).

Myzus persicae = Myzus persicae test (cabbage leaves, dip); details: Table C
Experimental: (§2) To produce a suitable preparation of active compound, 1 part by weight of active compound is mixed with the stated amounts of solvent and emulsifier, and the concentrate is diluted with emulsifier-containing water to the desired concentration.
Cabbage leaves (Brassica oleracea) which are heavily infested by the green peach aphid (Myzus persicae) are treated by being dipped into the preparation of active compound of the desired concentration.
as §1

[1] = test system: Phaedon cochleariae larvae; assay: Phaedon cochleariae larvae test (cabbage leaves, dip)
Experimental: Phaedon cochleariae Larvae Test
as §2
Cabbage leaves (Brassica oleracea) are treated by being dipped into the preparation of active compound of the desired concentration and are populated with larvae of the mustard beetle (Phaedon cochleariae) while the leaves are still moist.
After the desired period of time, the kill in % is determined. 100% means that all beetle larvae have been killed; 0% means that none of the beetle larvae have been killed. The kill rates determined are calculated using Colby's formula (see page 44).

[2] = test system: Tetranychus urticae (OP-resistant); assay: Tetranychus urticae test (OP-resistant; dip application)
Experimental: Tetranychus urticae Test (OP-Resistant; Dip Application)
as §2
Bush beans (Phaseolus vulgaris) which are heavily infested by the greenhouse red spider mite (Tetranychus urticae) are dipped into a preparation of active compound of the desired concentration.
After the desired period of time, the kill in % is determined. 100% means that all spider mites have been killed; 0% means that none of the spider mites have been killed. The kill rates determined are calculated using Colby's formula (see page 44).

Heliothis armigera = Heliothis armigera test (cabbage leaves, dip); details: for Kill rate in % after 6 d, found: Table B 1; for Kill rate in % after 3 d, found: Table B 2
Experimental: as §2
Cabbage leaves (Brassica oleracea) are treated by being dipped into the preparation of active compound of the desired concentration and are populated with caterpillars of the cotton boll worm (Heliothis armigeia) while the leaves are still moist.
After the desired period of time, the kill in % is determined. 100% means that all caterpillars have been killed; 0% means that none of the caterpillars have been killed. The kill rates determined are calculated using Colby's formula (see page 44).

Compound: CC(C)c1cc(Oc2ccccc2)cc(C(C)C)c1NC(=S)NC(C)(C)C [(2-5) diafenthiuron, diafenthiuron, reference compound]
- Kill rate in % after 1 d, found (Aphis gossypii; 20 ppm): 15%

Compound: O=S1OCC2C(CO1)C1(Cl)C(Cl)=C(Cl)C2(Cl)C1(Cl)Cl (stereo not shown) [(2-20) endosulfan, endosulfan, reference compound]
- Kill rate in % after 6 d, found (Myzus persicae; 20 ppm): 15%

Compound: Cc1cc(C)c(C2=C(OC(=O)CC(C)(C)C)C3(CCCC3)OC2=O)c(C)c1 [Example I-1]
- Kill rate in % after 4 d, found ([1]; Table D 2, 100 ppm): 45%
- Kill rate in % after 7 d, found ([2]; Table E 2, 0.8 ppm): 65%

Compound: CCC(C)(C)C(=O)OC1=C(c2ccc(Cl)cc2Cl)C(=O)OC12CCCCC2 [Example I-2]
- Kill rate in % after 4 d, found ([1]; Table D 1, 100 ppm): 0%
- Kill rate in % after 7 d, found ([2]; Table E 1, 0.8 ppm): 0%

Compound: Cc1cc(Cl)cc(C(=O)NC(C)C)c1NC(=O)c1cc(C(F)(F)F)nn1-c1ncccc1Cl [II-1-9]
- Kill rate in % after 1 d, found (Aphis gossypii; 4 ppm): 10%
- Kill rate in % after 6 d, found (Heliothis armigera; 0.0064 ppm): 30%
- Kill rate in % after 3 d, found (Heliothis armigera; 0.0064 ppm): 10%
- Kill rate in % after 6 d, found (Myzus persicae; 4 ppm): 25%
- Kill rate in % after 4 d, found ([1]; Table D 1, 0.16 ppm): 0%
- Kill rate in % after 4 d, found ([1]; Table D 2, 0.16 ppm): 5%
- Kill rate in % after 7 d, found ([2]; Table E 1, 100 ppm): 0%
- Kill rate in % after 7 d, found ([2]; Table E 2, 100 ppm): 0%

Compound: abamectin [(2-2) abamectin, reference compound]
- Kill rate in % after 6 d, found (Heliothis armigera; 0.16 ppm): 50%

Compound: spinosad [(2-17) spinosad, reference compound]
- Kill rate in % after 3 d, found (Heliothis armigera; 0.032 ppm): 0%
